Data as given in patent publication EP0300675A2, “Method for the improvement of cyclosporine therapy” (MERCK FROSST CANADA INC., priority 1987, dated 1989).

Tested on: cyclosporine A-induced nephrotoxicity
Experiment: cyclosporine A-induced nephrotoxicity (rise in serum BUN) in SHR rats dosed for 14 days
Type: in vivo, female spontaneously hypertensive (SHR) rats
Settings: for Serum BUN ± S.E.M.: 14 days; for inhibition of the increase in serum BUN: 3 mg/kg/day in saline
Protocol: All experiments were carried out using female spontaneously hypertensive (SHR) rats, weight range 160-200 gm, obtained from Taconic Farms. […] Four thromboxane antagonists have been studied so far. […] Thromboxane antagonists have been administered as the sodium salt dissolved in saline, the sodium salt dissolved in 0.1% NaHCO₃ or the free acid suspended in 1% Methocel.

[1] = 3 mg/kg/day in saline with cyclosporine A 25 mg/kg/day, Combined experiments
[2] = 3 mg/kg/day in saline with cyclosporine A 25 mg/kg/day, Experiment 1
[3] = second experiment combined together

O=C(O)CC1CCCc2c1n(Cc1ccc(Cl)cc1)c1c(F)cc(F)cc21 (single isomer, unassigned; (-)) [Compound 3, (-)-9-(p-Chlorobenzyl)-6,8-difluoro-1,2,3,4-tetrahydrocarbazol-1-yl acetic acid]
Serum BUN ± S.E.M. (3 mg/kg/day, suspension of free acid in 1% Methocel, with cyclosporine A 25 mg/kg/day, Table 4 (two separate experiments)): 23.2 ± 0.9 mg/100 ml
Serum BUN ± S.E.M. (10 mg/kg/day, suspension of free acid in 1% Methocel, with cyclosporine A 25 mg/kg/day, Table 4 (two separate experiments)): 24.0 ± 1.1 mg/100 ml
inhibition of the rise in serum BUN (both doses (3 and 10 mg/kg/day), suspension of the free acid, two separate experiments): significant inhibition

O=C(O)CC1CCCc2c1n(Cc1ccc(Cl)cc1)c1ccc(F)cc21 (racemic) [Compound 2, 9-(p-Chlorobenzyl)-6-fluoro-1,2,3,4-tetrahydrocarbazol-1-yl acetic acid]
Serum BUN ± S.E.M. [1]: 30.3 ± 2.0 mg/100 ml
Serum BUN ± S.E.M. [2]: 24.6 ± 1.7 mg/100 ml
inhibition of the increase in serum BUN (one experiment (Table 2)): significant inhibition
inhibition of the increase in serum BUN [3]: no significant inhibition

Cc1c(CC(C)(C)C(=O)O)n(Cc2ccc(Cl)cc2)c2ccc(F)cc12 [Compound 1, 3-(1-(4-Chlorobenzyl)-3-methyl-5-fluoroindol-2 yl)-2,2-dimethyl propanoic acid]
inhibition of the increase in serum BUN induced by cyclosporine A (3 mg/kg/day in 0.1% NaHCO₃): No significant inhibition
Serum BUN ± S.E.M. (3 mg/kg/day in 0.1% NaHCO₃ with cyclosporine A 25 mg/kg/day): 28.3 ± 2.2 mg/100ml
Serum BUN ± S.E.M. [1]: 28.0 ± 1.6 mg/100 ml
Serum BUN ± S.E.M. [2]: 24.5 ± 1.1 mg/100 ml
inhibition of the increase in serum BUN (one experiment (Table 2)): significant inhibition
inhibition of the increase in serum BUN [3]: no significant inhibition
Serum BUN ± S.E.M. (10 mg/kg/day in 0.1% NaHCO₃ with cyclosporine A 25 mg/kg/day, 2 separate experiments): 23.4 ± 0.9 mg/100ml
inhibition of the increase in serum BUN induced by cyclosporine A (10 mg/kg/day in 0.1% NaHCO₃, mean of two separate experiments, p < 0.05): significant inhibition

CS(=O)(=O)c1ccc(Cn2c3c(c4cc(F)cc(F)c42)CCCC3CC(=O)O)cc1 (single isomer, unassigned; (-)) [Compound 4, (-)-9-(p-Methylsulfonylbenzyl)-6,8-difluoro-1,2,3,4-tetrahydrocarbazol-1-yl acetic acid]
Serum BUN ± S.E.M. (3 mg/kg/day, suspension of free acid in 1% Methocel, with cyclosporine A 25 mg/kg/day, Table 5): 23.5 ± 1.0 mg/100 ml
Serum BUN ± S.E.M. (10 mg/kg/day, suspension of free acid in 1% Methocel, with cyclosporine A 25 mg/kg/day, Table 5): 21.9 ± 0.8 mg/100 ml
effect on cyclosporine A-induced rises in serum BUN (both 3 and 10 mg/kg/day, suspension of the free acid): effective
